Results reported in the supplement of paper PMC11451515.

What was measured:
Assay in all cases: AUC of viability dose-response curve (% viability x log10 dose units); higher = less sensitive
Conditions in all cases: 48 h
[1] = system: P12-Ichikawa
Procedure, shortened: (§1)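 Medium-adapted leukemia cells in 1536-well plates, at 500 or 1000 cells/well, were incubated for 48 h at 37°C with library compounds in DMSO at 11 threefold doses from 47 μM to 0.79 nM. CellTiter-Glo One luminescence normalised per plate to DMSO and cell-free wells was fitted with a four-parameter log-logistic model over log10 doses. Area under the curve was integrated from this fit by trapezoidal rule, with curves beyond full viability scaled and failed quality-control curves removed.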

[2] = system: NOMO1
Procedure, shortened: as §1

[3] = system: SEM cells
Procedure, shortened: as §1

[4] = RPMI 5 mM glucose + 10% dialyzed FBS

SMILES	AUC of viability dose-response curve ([1]; HPLM + 10% dialyzed FBS)	AUC of viability dose-response curve ([1]; RPMI 5 mM glucose + 10% FBS)	AUC of viability dose-response curve [1, 4]	AUC of viability dose-response curve ([2]; HPLM + 10% dialyzed FBS)	AUC of viability dose-response curve ([2]; RPMI 5 mM glucose + 10% FBS)	AUC of viability dose-response curve [2, 4]	AUC of viability dose-response curve ([3]; HPLM + 10% dialyzed FBS)	AUC of viability dose-response curve ([3]; RPMI 5 mM glucose + 10% FBS)	AUC of viability dose-response curve [3, 4]
Cc1nccn1CC1CCc2c(c3ccccc3n2C)C1=O (stereo unspecified)	448	422	462	447	465	462	441	453	429
CCC[C@H](N[C@@H](C)C(=O)N1[C@H](C(=O)O)C[C@@H]2CCCC[C@@H]21)C(=O)OCC	454	433	438	394	439	399	469	469	466
Cn1c(Nc2ccc(C(F)(F)F)cc2)nc2cc(Oc3ccnc(-c4nc(C(F)(F)F)c[nH]4)c3)ccc21	441	425	431	444	454	446	402	389	395
COc1cc2c(Oc3ccc(NC(=O)C4(C(=O)Nc5ccc(F)cc5)CC4)cc3F)ccnc2cc1OCCCN1CCOCC1	291	296	299	334	343	311	136	149	105
COc1cc2c(Nc3ccc(Cl)c(Cl)c3F)ncnc2cc1OC[C@@H]1C[C@@H]2CN(C)C[C@@H]2C1	388	388	401	355	437	418	383	358	379
CNC1[C@@H](O)C(O[C@@H]2C(O)C(O[C@H]3O[C@H]([C@@H](C)NC)CC[C@H]3N)[C@@H](N)C[C@H]2N)OC[C@]1(C)O (stereo partly specified)	462	444	436	446	448	415	459	421	472
CC(C)(C)C(=O)OCOP(=O)(COCCn1cnc2c(N)ncnc21)OCOC(=O)C(C)(C)C	316	287	309	306	259	278	291	238	235
C[S+](=O)([O-])N(Cc1ccco1)CC(O)Cn1c2ccccc2c2ccccc21 (stereo unspecified)	436	414	409	421	415	417	407	396	381
[NH2][Pt]([NH2])([Cl])[Cl]	470	449	433	456	421	445	429	419	380
CCC(=O)OCC(=O)[C@@]1(OC(=O)CC)[C@@H](C)C[C@H]2[C@@H]3CCC4=CC(=O)C=C[C@]4(C)[C@@]3(F)[C@@H](O)C[C@@]21C	351	335	317	360	408	391	426	390	372
OC[C@H](Cc1ccccc1)Nc1nc(Oc2ccc3c(c2)CCC3)nc2c1ncn2Cc1ccc(-c2ccccc2)cc1	454	431	418	463	434	458	455	428	432
O=C(Nc1cccc(Nc2ncc(Br)c(NCCc3cnc[nH]3)n2)c1)N1CCCC1	318	294	344	349	342	369	213	203	191
OCc1ccc(-c2nn(Cc3ccccc3)c3ccccc23)o1	442	464	459	385	425	405	369	346	347
Cc1cccc(C)c1OCC(=O)N[C@@H](Cc1ccccc1)[C@@H](O)C[C@H](Cc1ccccc1)NC(=O)[C@H](C(C)C)N1CCCNC1=O	443	448	414	443	418	422	391	435	435
CN(C)C(=O)c1ccc([S+](=O)([O-])c2ccc(NC(=O)[C@@](C)(O)C(F)(F)F)c(Cl)c2)cc1	455	448	446	411	425	451	472	417	444
CCOC(=O)[C@H](CCc1ccccc1)N[C@@H](C)C(=O)N1CCC[C@H]1C(=O)O	452	447	465	453	437	461	462	470	434
CCc1c(C(=O)C(N)=O)c2c(OCC(=O)O)cccc2n1Cc1ccccc1	471	460	452	442	465	463	462	464	461
Cc1cccc(-c2nn(C(=S)Nc3ccccc3)cc2-c2ccnc3ccccc23)n1	440	444	437	431	461	456	465	455	456
CC(=O)Nc1ccc([C@H](C)C(=O)Nc2ncc(C(C)C)s2)cc1	403	411	408	397	365	386	390	393	387
Cc1cccc(C#Cc2ccccc2)n1	456	445	450	461	464	463	456	455	449
CC1=CC=CC=C1CN2C(=O)C/3=C(/CCN(CC4=CC=CC=C4)C3)N\5CC\N=C25	418	417	418	388	393	384	410	376	391
CC[C@H]1/C=C\C=C/C[C@@H](C)[C@H](O)[C@@](C)(O)C(=O)[C@@H](C)[C@H](O)[C@@H](C)C(=O)[C@@H](C)[C@H](O)[C@@H](C)/C=C/C(=O)O[C@@H]2[C@H](C)[C@H](CC1)O[C@]1(CC[C@H](C)[C@H](C[C@@H](C)O)O1)[C@H]2C	389	388	363	368	331	324	362	340	354

SMILES	AUC of viability dose-response curve ([1]; HPLM + 10% dialyzed FBS)	AUC of viability dose-response curve ([1]; RPMI 5 mM glucose + 10% FBS)	AUC of viability dose-response curve [1, 4]	AUC of viability dose-response curve ([2]; HPLM + 10% dialyzed FBS)	AUC of viability dose-response curve ([2]; RPMI 5 mM glucose + 10% FBS)	AUC of viability dose-response curve [2, 4]	AUC of viability dose-response curve ([3]; HPLM + 10% dialyzed FBS)	AUC of viability dose-response curve ([3]; RPMI 5 mM glucose + 10% FBS)	AUC of viability dose-response curve [3, 4]
O=C(CO)N1CCC(c2n[nH]c(-c3ccc(Cl)cc3)c2-c2ccncn2)CC1	441	420	423	438	453	446	411	403	404
Cc1ncc(OC[C@@]2(c3cccc(F)c3)C[C@H]2C(=O)Nc2ccc(F)cn2)c(C)n1	455	474	470	476	474	464	444	435	452
CC(C)(C)C(=O)Oc1ccc([S+](=O)([O-])Nc2ccccc2C(=O)NCC(=O)O)cc1	416	423	420	428	437	443	465	436	471
Cc1cc(Nc2nc(N[C@@H](C)c3ncc(F)cn3)ncc2Cl)n[nH]1	421	454	425	363	408	422	399	336	365
CN(C/C=C/C#CC(C)(C)C)Cc1cccc2ccccc12	475	468	444	458	440	447	452	450	455
C1CCC(C(CC2CCCCN2)C2CCCCC2)CC1 (stereo unspecified)	470	457	465	451	454	446	429	429	405
Oc1ccc(/C=C/c2cc(O)cc(O)c2)cc1	462	457	444	425	457	450	450	417	441
CC1(C)CCC(=C(CN2CCN(CC2)C3=CC=C(C=C3)C(=O)N[S+]([O-])(=O)C4=CC(=C(N[C@H](CCN5CCOCC5)CSC6=CC=CC=C6)C=C4)[S+]([O-])(=O)C(F)(F)F)\C1)/C7=CC=C(Cl)C=C7	235	240	259	357	332	291	216	197	197
CC(C)[C@@H](C[S+](=O)([O-])C(C)C)N1C(=O)[C@@](C)(CC(=O)O)C[C@H](c2cccc(Cl)c2)[C@H]1c1ccc(Cl)cc1	278	320	335	306	357	362	355	289	360
CC1(C)C(=O)N(CCN2CCC(C(=O)c3ccc(F)cc3)CC2)c2ccccc21	469	472	462	468	465	459	471	455	471
ClC1=CC(=CC=C1)N2CCN(CCCN3\N=C4\C=C/C=C\N4C3=O)CC2	453	473	468	465	453	451	419	446	464
CCOc1cc(N)c(Cl)cc1C(=O)NCC1CN(Cc2ccc(F)cc2)CCO1 (stereo unspecified)	467	467	469	464	470	460	419	467	466
CC(=O)N1CCN(c2ccc(OCc3nn(C)c(C)c3-c3cccc4c(CCCOc5cccc6ccccc56)c(C(=O)O)n(Cc5cccnc5)c34)cc2)CC1	416	418	445	368	355	376	457	440	464
Oc1ccc(C2CCN(c3ccnc4ccccc34)CC2)cc1O	427	418	408	445	457	467	399	386	404
C\C1=C\C(=O)C2=C(C=CC=C2)C1=O	465	440	468	466	460	456	464	458	435
NC(=O)c1ncn([C@@H]2O[C@H](CO)[C@@H](O)[C@H]2O)n1	447	424	423	354	403	380	471	453	471
CC(=O)O[C@@]1(CC[C@H]2[C@@H]3\C=C(C)/C4=C/C(=O)CC[C@]4(C)[C@H]3CC[C@]12C)C(C)=O	470	460	464	459	465	449	444	455	472
O=C1C[C@@H](c2ccc(O)cc2)Oc2cc(O)cc(O)c21	433	462	456	437	476	458	468	382	470
CC1=C(C=CC=C1)N2\C(=N/C3=C(C(=CC=C3)C)C2=O)C[N]4N=CC5=C4N=CN=C5N	368	366	377	329	307	341	469	470	471
CC(=O)OCC(=O)[C@@]12\N=C(C)/O[C@@H]1C[C@H]3[C@@H]4CCC/5=C/C(=O)/C=C\[C@]5(C)[C@H]4[C@@H](O)C[C@]23C	436	427	415	470	468	462	404	432	444
O=C(NC[C@H]1CN(c2ccc(N3CCOCC3=O)cc2)C(=O)O1)c1ccc(Cl)s1	372	376	395	345	312	345	423	459	444
CN(C)CCc1c[nH]c2ccc(C[C@H]3COC(=O)N3)cc12	405	409	411	423	433	449	384	340	381
